Converted amounts (≈) assume the structure as drawn.
Experiments:
Homo sapiens [1] = species on record: Homo sapiens; test: Inhibition of BZD receptor (unknown origin) at 10 uM relative to control
[2] = Aqueous solubility of compound in phosphate buffer at pH 6.8; assay type: physicochemical
CYP1A2 = target: T1, CYP1A2 (Homo sapiens, UniProt P05177); test: Inhibition of CYP1A2 in human liver microsomes at 10 uM after 20 mins in presence of NADPH by LC/MS/MS analysis relative to control; assay type: ADME; settings: liver microsomes
T1 sequence (P05177 whole entry): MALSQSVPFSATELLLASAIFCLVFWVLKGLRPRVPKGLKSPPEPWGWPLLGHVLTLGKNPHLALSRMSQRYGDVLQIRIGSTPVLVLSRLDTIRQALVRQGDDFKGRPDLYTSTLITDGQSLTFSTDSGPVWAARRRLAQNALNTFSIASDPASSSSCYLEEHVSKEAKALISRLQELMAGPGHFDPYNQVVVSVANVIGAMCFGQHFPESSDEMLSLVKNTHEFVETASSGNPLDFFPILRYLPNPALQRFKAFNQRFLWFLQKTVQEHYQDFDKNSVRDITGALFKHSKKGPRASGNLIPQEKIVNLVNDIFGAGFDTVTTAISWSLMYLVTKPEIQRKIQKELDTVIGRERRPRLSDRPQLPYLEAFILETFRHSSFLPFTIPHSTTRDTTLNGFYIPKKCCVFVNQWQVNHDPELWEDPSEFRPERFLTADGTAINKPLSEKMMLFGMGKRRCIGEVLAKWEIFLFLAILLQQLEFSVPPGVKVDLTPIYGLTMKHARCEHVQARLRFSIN

[3] = Protein binding in human plasma at 10 uM by LC/MS/MS based equilibrium dialysis analysis; assay type: ADME, cell-free; settings: read-out: PPB
[4] = Metabolic stability of human liver microsomes assessed as parent compound remaining at 0.1 uM after 60 mins in presence of NADPH by LC/MS/MS analysis; assay type: ADME, microsome; settings: read-out: Stability
Homo sapiens [5] = species on record: Homo sapiens; test: Inhibition of chloride channel (unknown origin) at 10 uM relative to control
[6] = target: All-trans-retinol dehydrogenase [NAD(+)] ADH1B (Homo sapiens, UniProt P00325); test: Inhibition of ADH1B (unknown origin) assessed as reduction in NADH production by spectrophotometric analysis
Mus musculus [7] = test: Anti-inflammatory activity in C57BL/6 mouse model of cigarette smoke induced chronic obstructive pulmonary disease assessed as macrophages count in bronchoalveolar lavage at 10 mg/kg, po administered once daily for 7 days 1 hr prior to first smoke exposure and measured on day 8 after last smoke exposure post single drug treatment by Leishman's staining based assay; assay type: functional
[8] = Half life in C57/BL6 mouse at 3 mg/kg, iv; assay type: ADME, organism-based; settings: in vivo
Mus musculus [9] = test: Anti-inflammatory activity in C57BL/6 mouse model of cigarette smoke induced chronic obstructive pulmonary disease assessed as neutrophil count in bronchoalveolar lavage at 10 mg/kg, po administered once daily for 7 days 1 hr prior to first smoke exposure and measured on day 8 after last smoke exposure post single drug treatment by Leishman's staining based assay; assay type: functional
[10] = target: Leukotriene B4 receptor 1 (Homo sapiens) (UniProt Q15722); test: Displacement of [3H]LTB4 to recombinant human LTB4 receptor at 10 uM after 60 mins by scintillation counting analysis relative to control
[11] = Aqueous solubility of compound in 0.1 N HCl; assay type: physicochemical
[12] = Half life in C57/BL6 mouse at 30 mg/kg, po; assay type: ADME, organism-based; settings: in vivo
[13] = Aqueous solubility of compound in acetate buffer at pH 4.5; assay type: physicochemical
Bos taurus = species on record: Bos taurus; test: Inhibition of bovine PDE6 at 10 uM using [3H]cGMP as substrate after 60 mins by scintillation counting analysis relative to control
Mus musculus [14] = test: Anti-inflammatory activity in C57BL/6 mouse model of cigarette smoke induced chronic obstructive pulmonary disease assessed as macrophages count in bronchoalveolar lavage at 100 mg/kg, po administered once daily for 7 days 1 hr prior to first smoke exposure and measured on day 8 after last smoke exposure post single drug treatment by Leishman's staining based assay; assay type: functional
[15] = target: Alcohol dehydrogenase class-3 (Rattus norvegicus, UniProt P12711); test: Inhibition of rat GSNOR assessed as reduction in NADH consumption after 3 mins by spectrophotometric analysis
[16] = Metabolic stability of rat liver microsomes assessed as parent compound remaining at 0.1 uM after 60 mins in presence of NADPH by LC/MS/MS analysis; assay type: ADME, microsome; settings: read-out: Stability
hERG (KCNH2) = hERG (KCNH2) (Homo sapiens, UniProt Q12809); test: Inhibition of human ERG at 10 uM by patch clamp assay relative to control
[17] = Clearance in C57/BL6 mouse at 3 mg/kg, iv; assay type: ADME, organism-based; settings: in vivo
[18] = Tmax in C57/BL6 mouse at 30 mg/kg, po; assay type: ADME, organism-based; settings: in vivo
[19] = Cmax in C57/BL6 mouse at 30 mg/kg, po; assay type: ADME, organism-based; parameters: dose 30 mg/kg, route oral; settings: in vivo
Rattus norvegicus = species on record: Rattus norvegicus; test: Displacement of [35S]dATPalphaS to rat P2Y receptor at 10 uM after 60 mins by scintillation counting analysis relative to control
Homo sapiens [20] = species on record: Homo sapiens; test: Inhibition of I2 receptor (unknown origin) at 10 uM relative to control
Mus musculus [21] = test: Anti-inflammatory activity in po dosed C57BL/6 mouse model of cigarette smoke induced chronic obstructive pulmonary disease assessed as reduction in cellular infiltration in bronchoalveolar lavage administered once daily for 7 days 1 hr prior to first smoke exposure and measured on day 8 after last smoke exposure post single drug treatment by hemocytometry; assay type: functional, organism-based
[22] = Metabolic stability of mouse liver microsomes assessed as parent compound remaining at 0.1 uM after 60 mins in presence of NADPH by LC/MS/MS analysis; assay type: ADME, microsome; settings: read-out: Stability
Mus musculus [23] = test: Anti-inflammatory activity in C57BL/6 mouse model of cigarette smoke induced chronic obstructive pulmonary disease assessed as neutrophil count in bronchoalveolar lavage at 3 mg/kg, po administered once daily for 7 days 1 hr prior to first smoke exposure and measured on day 8 after last smoke exposure post single drug treatment by Leishman's staining based assay; assay type: functional
[24] = Aqueous solubility of compound in DMSO; assay type: physicochemical
[25] = Aqueous solubility of compound in fasted state stimulated intestinal fluid at pH 6.2; assay type: physicochemical; settings: fasted state simulated intestinal fluid
Mus musculus [26] = test: Anti-inflammatory activity in C57BL/6 mouse model of cigarette smoke induced chronic obstructive pulmonary disease assessed as neutrophil count in bronchoalveolar lavage at 30 mg/kg, po administered once daily for 7 days 1 hr prior to first smoke exposure and measured on day 8 after last smoke exposure post single drug treatment by Leishman's staining based assay; assay type: functional
Mus musculus [27] = test: Anti-inflammatory activity in C57BL/6 mouse model of cigarette smoke induced chronic obstructive pulmonary disease assessed as neutrophil count in bronchoalveolar lavage at 100 mg/kg, po administered once daily for 7 days 1 hr prior to first smoke exposure and measured on day 8 after last smoke exposure post single drug treatment by Leishman's staining based assay; assay type: functional

Leukotriene B4 receptor 1 (Homo sapiens), sequence (Q15722 whole entry): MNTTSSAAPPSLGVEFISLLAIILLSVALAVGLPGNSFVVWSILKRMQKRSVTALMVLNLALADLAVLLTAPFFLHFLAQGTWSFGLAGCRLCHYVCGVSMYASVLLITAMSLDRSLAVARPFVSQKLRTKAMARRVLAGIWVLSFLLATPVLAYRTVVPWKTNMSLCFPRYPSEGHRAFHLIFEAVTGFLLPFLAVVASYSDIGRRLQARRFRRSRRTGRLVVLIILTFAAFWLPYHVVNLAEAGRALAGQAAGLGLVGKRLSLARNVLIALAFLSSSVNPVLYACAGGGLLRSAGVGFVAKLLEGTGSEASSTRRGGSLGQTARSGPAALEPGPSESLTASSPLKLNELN
Alcohol dehydrogenase class-3, sequence (P12711 whole entry): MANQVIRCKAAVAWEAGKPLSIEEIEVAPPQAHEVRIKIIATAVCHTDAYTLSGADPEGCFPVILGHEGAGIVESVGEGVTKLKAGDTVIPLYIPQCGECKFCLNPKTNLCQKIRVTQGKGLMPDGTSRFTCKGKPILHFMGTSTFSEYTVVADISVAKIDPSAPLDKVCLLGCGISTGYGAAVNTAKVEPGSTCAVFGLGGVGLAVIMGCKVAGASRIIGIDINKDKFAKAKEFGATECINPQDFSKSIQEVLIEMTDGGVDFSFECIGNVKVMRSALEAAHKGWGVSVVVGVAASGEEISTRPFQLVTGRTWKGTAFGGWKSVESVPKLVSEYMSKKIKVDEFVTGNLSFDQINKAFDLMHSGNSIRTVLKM
All-trans-retinol dehydrogenase [NAD(+)] ADH1B, sequence (P00325 whole entry): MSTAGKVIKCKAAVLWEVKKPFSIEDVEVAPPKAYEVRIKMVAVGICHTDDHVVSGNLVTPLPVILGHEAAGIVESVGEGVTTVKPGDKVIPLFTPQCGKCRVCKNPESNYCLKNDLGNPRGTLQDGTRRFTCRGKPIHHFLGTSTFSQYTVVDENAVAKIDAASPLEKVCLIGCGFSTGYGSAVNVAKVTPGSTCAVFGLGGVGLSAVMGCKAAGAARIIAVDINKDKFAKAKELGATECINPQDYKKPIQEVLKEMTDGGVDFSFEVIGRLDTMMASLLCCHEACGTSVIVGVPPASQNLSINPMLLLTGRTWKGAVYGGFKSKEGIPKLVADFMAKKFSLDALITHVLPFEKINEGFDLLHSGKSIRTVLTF
hERG (KCNH2), sequence (Q12809 whole entry): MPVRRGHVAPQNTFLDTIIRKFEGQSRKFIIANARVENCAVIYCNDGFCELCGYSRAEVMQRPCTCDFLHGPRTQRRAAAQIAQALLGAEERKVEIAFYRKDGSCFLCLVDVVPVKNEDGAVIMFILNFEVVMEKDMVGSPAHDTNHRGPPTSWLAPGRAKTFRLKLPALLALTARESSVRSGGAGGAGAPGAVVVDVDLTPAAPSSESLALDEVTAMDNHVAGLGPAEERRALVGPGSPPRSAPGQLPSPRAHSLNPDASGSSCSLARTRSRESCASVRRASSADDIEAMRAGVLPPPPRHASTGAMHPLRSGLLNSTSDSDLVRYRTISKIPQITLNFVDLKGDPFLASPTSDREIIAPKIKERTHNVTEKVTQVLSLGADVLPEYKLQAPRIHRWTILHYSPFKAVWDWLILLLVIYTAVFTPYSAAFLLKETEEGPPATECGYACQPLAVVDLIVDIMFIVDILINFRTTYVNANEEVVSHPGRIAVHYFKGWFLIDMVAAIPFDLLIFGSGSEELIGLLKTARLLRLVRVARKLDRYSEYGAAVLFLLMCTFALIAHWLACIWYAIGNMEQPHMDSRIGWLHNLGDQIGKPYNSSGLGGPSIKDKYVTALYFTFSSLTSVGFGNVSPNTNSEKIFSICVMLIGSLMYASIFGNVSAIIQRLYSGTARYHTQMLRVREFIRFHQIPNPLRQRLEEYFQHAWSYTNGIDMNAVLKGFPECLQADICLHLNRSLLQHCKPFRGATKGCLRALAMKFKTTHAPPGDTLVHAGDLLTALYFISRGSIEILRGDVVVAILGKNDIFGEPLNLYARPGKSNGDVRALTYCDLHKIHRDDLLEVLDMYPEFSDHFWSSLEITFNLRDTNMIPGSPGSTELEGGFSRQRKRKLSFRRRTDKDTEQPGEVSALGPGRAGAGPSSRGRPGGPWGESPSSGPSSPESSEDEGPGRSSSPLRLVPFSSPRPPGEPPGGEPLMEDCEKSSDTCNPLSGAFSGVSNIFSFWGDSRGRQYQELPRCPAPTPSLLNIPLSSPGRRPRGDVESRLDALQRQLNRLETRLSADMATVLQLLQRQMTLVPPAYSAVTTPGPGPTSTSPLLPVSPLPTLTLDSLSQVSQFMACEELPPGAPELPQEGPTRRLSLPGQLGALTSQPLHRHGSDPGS

SMILES: Clc1cc(-c2nnn[nH]2)ccc1-c1ccc(-n2ccnc2)cc1
- inhibition (Homo sapiens [1]): 50%
- solubility [2]: 7 µg/mL (≈ 21.7 µM)
- inhibition at 20 min, 10 µM (CYP1A2): 32%
- fraction unbound at 10 µM [3]: < 0.005
- remaining at 1 h, 0.1 µM [4]: 100%
- inhibition (Homo sapiens [5]): 50%
- IC50 [6]: 54 µM
- Activity (Mus musculus [7]): 59%
- half-life [8]: 3.4 h
- Activity (Mus musculus [9]): 25%
- inhibition [10]: 64%
- solubility [11]: 20 µg/mL (≈ 62 µM)
- half-life [12]: 6 h
- solubility [13]: 1.1 µg/mL (≈ 3.41 µM)
- inhibition (Bos taurus): 60%
- Activity (Mus musculus [14]): 61%
- IC50 [15]: 0.0091 µM
- remaining at 1 h, 0.1 µM [16]: 83%
- inhibition at 10 µM (hERG (KCNH2)): 11%
- clearance [17]: 1.4 mL/min/kg
- Tmax [18]: 2 h
- Cmax [19]: 8960 ng/mL
- inhibition (Rattus norvegicus): 59%
- inhibition (Homo sapiens [20]): 88%
- Activity (Mus musculus [21]): Dose-dependent effect
- remaining at 1 h, 0.1 µM [22]: 43%
- Activity (Mus musculus [23]): 19%
- solubility [24]: 20000 µg/mL (≈ 62000 µM)
- solubility [25]: 3.5 µg/mL (≈ 10.8 µM)
- Activity (Mus musculus [26]): 37%
- Activity (Mus musculus [27]): 47%
